Results on 24 compounds are retold here after ChEMBL document CHEMBL5335844, “Design, synthesis and preliminary biological evaluation of rivastigmine-INDY hybrids as multitarget ligands against Alzheimer's disease by targeting butyrylcholinesterase and DYRK1A/CLK1 kinases” (RSC Med Chem, 2024).

The target in data set [1] is T1, Dual specificity tyrosine-phosphorylation-regulated kinase 1A (Homo sapiens, UniProt Q13627). The experiment in a line: Inhibition of human DYRK1A using RRRFRPASPLRGPPK as substrate incubated for 40 mins in presence of Mg/[gamma-33P]-ATP by scintillation counting method.
Data set [2] deals with T2, Dual specificity protein kinase CLK1 (Homo sapiens, UniProt P49759). Description: Inhibition of human CLK1 using ERMRPRKRQGSVRRRV as substrate incubated for 40 mins in presence of Mg/[gamma-33P]-ATP by scintillation counting method.
Target sequence in this assay (P49759 whole entry): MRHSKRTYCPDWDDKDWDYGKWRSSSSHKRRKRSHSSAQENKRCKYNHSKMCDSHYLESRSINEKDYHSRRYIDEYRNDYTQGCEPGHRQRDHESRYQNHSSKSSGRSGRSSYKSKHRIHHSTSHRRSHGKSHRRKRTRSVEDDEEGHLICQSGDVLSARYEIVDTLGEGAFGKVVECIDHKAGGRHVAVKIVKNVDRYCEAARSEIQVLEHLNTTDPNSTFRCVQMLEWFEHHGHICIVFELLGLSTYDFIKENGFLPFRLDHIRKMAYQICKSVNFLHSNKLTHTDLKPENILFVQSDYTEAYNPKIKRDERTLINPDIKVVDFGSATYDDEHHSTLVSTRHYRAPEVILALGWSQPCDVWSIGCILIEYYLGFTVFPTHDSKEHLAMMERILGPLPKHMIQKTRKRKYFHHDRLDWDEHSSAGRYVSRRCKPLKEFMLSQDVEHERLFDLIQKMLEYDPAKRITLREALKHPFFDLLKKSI
A further data set has as its target Cholinesterase (Equus caballus, UniProt P81908). The experiment in a line: Inhibition of equine serum BuChE using butyrylthiocholine iodide as substrate preincubated for 5 mins followed by substrate addition and measured every min for 10 mins by Ellman's method. Format: cell-free. A general note: Ellman's reagent forms a yellow product with free thiols.
Data set [3] has as its target T3, Acetylcholinesterase (Homo sapiens, UniProt P22303). The experiment in a line: Inhibition of human erythrocyte AChE using acetylthiocholine iodide as substrate preincubated for 5 mins followed by substrate addition and measured every min for 10 mins by Ellman's method.
Data set [4] deals with T3, Acetylcholinesterase. Description: Inhibition of human erythrocyte AChE at 10 uM using acetylthiocholine iodide as substrate preincubated for 5 mins followed by substrate addition and measured every min for 10 mins by Ellman's method relative to control. Conditions: time 15.0 min.
Data set [5] addresses T1, Dual specificity tyrosine-phosphorylation-regulated kinase 1A. The experiment in a line: Inhibition of human DYRK1A at 10 uM using RRRFRPASPLRGPPK as substrate incubated for 40 mins in presence of Mg/[gamma-33P]-ATP by scintillation counting method relative to control.
Data set [6] concerns the target T2, Dual specificity protein kinase CLK1. Description: Inhibition of human CLK1 at 10 uM using ERMRPRKRQGSVRRRV as substrate incubated for 40 mins in presence of Mg/[gamma-33P]-ATP by scintillation counting method relative to control.
Target sequence in this assay (P49759 whole entry, looked up): as the sequence (P49759 whole entry) above
Data set [7] in a line: Chromatographic hydrophobicity index, logD of the compound at pH 7.4 by reversed phase HPLC analysis. Format: physicochemical. The following applies: buffer.
A short description of data set [8]: Solubility of the compound in PBS at pH 7.4 by HPLC analysis. Format: physicochemical. The following applies: buffer.
Data set [9] deals with Cholinesterase (Equus caballus) (UniProt P81908). Description: Inhibition of equine serum BuChE at 10 uM using butyrylthiocholine iodide as substrate preincubated for 5 mins followed by substrate addition and measured every min for 10 mins by Ellman's method relative to control. The following applies: time 15.0 min. The class given is cell-free.
Chain of Cholinesterase (Equus caballus) (P81908 whole entry): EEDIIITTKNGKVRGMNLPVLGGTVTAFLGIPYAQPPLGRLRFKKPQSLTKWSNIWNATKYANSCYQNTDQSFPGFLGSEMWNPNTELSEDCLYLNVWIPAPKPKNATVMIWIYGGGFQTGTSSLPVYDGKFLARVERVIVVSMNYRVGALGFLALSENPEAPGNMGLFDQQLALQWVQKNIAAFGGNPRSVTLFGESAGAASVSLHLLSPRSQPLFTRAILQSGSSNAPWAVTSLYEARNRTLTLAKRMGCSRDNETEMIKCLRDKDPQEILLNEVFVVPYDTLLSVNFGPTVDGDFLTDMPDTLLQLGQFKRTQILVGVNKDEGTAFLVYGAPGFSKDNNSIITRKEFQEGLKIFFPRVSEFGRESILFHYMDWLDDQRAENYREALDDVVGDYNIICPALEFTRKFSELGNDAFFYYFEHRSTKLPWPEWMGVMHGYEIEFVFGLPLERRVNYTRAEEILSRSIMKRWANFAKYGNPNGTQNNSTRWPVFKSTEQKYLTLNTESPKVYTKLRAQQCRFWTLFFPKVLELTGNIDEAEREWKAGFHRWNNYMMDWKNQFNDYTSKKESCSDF

T3 sequence (P22303 whole entry): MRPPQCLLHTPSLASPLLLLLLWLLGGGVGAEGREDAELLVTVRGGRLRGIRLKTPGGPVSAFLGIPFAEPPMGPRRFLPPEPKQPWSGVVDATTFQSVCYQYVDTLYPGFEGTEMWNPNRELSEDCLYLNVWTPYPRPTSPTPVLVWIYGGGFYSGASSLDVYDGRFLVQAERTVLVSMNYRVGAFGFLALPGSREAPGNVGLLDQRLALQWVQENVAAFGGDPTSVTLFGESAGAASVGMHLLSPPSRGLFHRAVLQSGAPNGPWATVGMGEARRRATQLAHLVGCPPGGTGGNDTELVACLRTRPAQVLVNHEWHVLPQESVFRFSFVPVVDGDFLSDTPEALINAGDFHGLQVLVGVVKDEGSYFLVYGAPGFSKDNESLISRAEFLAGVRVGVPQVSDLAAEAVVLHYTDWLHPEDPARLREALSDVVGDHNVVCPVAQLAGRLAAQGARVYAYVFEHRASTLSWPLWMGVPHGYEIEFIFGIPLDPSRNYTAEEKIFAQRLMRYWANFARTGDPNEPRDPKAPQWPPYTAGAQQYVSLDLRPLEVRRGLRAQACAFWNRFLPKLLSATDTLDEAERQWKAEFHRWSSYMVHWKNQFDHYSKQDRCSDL
Chain of Cholinesterase (P81908 whole entry): as the sequence (P81908 whole entry) above

On to `CC(=O)/C=C1\Sc2ccc(O)cc2N1Cc1ccccc1`, for which the IC50 came out at 529 nM in data set [1] and 54 nM in data set [2].
`CCN1/C(=C/C(C)=O)Sc2ccc(OC(=O)NCc3cccnc3)cc21`: the IC50 is 12000 nM at Cholinesterase and 34000 nM on Acetylcholinesterase [3].
Compound `CCCCCCCNC(=O)Oc1ccc2c(c1)N(CC)/C(=C/C(C)=O)S2` showed an IC50 on Cholinesterase of 1640 nM.
On to `CCCCCCCNC(=O)Oc1ccc2c(c1)N(Cc1ccccc1)/C(=C/C(C)=O)S2`, for which, on Cholinesterase, the midpoint of inhibition, the IC50, lay at 154 nM. In addition, at Acetylcholinesterase [4], the inhibition is less than 10%.
Consider `CC(=O)/C=C1\Sc2ccc(O)cc2N1Cc1cccc(Cl)c1`, for which the values for the IC50 in data set [1] and in data set [2] were 885 nM and 33 nM, respectively.
For the compound `CC(=O)/C=C1\Sc2ccc(O)cc2N1Cc1ccc2ccccc2c1`, the inhibition in data set [5] was 24%; in data set [6], 72%.
Regarding `CCN1/C(=C/C(C)=O)Sc2ccc(OC(=O)NC3CCCCC3)cc21`, the IC50 against Cholinesterase turned out to be 13000 nM; at Acetylcholinesterase [3], 11000 nM.
For `CCN(C)C(=O)Oc1ccc2c(c1)N(CCc1ccccc1)/C(=C/C(C)=O)S2`, the IC50 against Cholinesterase was 439 nM. Moreover, the inhibition on Acetylcholinesterase [4] was less than 10%.
In the same order, the values of `CCCCCCNC(=O)Oc1ccc2c(c1)N(Cc1ccccc1)/C(=C/C(C)=O)S2` are 470 nM and less than 10%.
For `CCCCCCCNC(=O)Oc1ccc2c(c1)N(Cc1cccc(C)c1)/C(=C/C(C)=O)S2`, at Cholinesterase, the IC50 came out at 761 nM.
The same measure, in the same setting: as for `CCCCCCCNC(=O)Oc1ccc2c(c1)N(Cc1ccc3ccccc3c1)/C(=C/C(C)=O)S2`, the figure is greater than 10000 nM.
Take `CC(=O)/C=C1\Sc2ccc(O)cc2N1Cc1cccc(C)c1`: the IC50 in data set [1] was 429 nM; in data set [2] it was 39 nM.
On to `CCCCCCCNC(=O)Oc1ccc2c(c1)N(Cc1ccc(Cl)cc1)/C(=C/C(C)=O)S2`, for which the IC50 against Cholinesterase was determined as 821 nM.
Consider `CCN1/C(=C/C(C)=O)Sc2ccc(OC(=O)NCCc3ccccc3)cc21`, for which the IC50 on Cholinesterase came to 6000 nM; on Acetylcholinesterase [3], 20000 nM.
In the case of `CCCCCCCNC(=O)Oc1ccc2c(c1)N(Cc1cccc(OC)c1)/C(=C/C(C)=O)S2`, at Cholinesterase, the IC50 was found to be 2190 nM.
Same read-out and setting: the value for `CCCCCCCNC(=O)Oc1ccc2c(c1)N(Cc1cccc(Cl)c1)/C(=C/C(C)=O)S2` was 703 nM.
`CCN(C)C(=O)Oc1ccc2c(c1)N(Cc1ccccc1)/C(=C/C(C)=O)S2` gave an IC50 on Cholinesterase of 68 nM. In data set [7], the chromatographic logD stood at 3. The same compound displayed an inhibition at Acetylcholinesterase [4] of less than 10%. In data set [8], the solubility result is recorded as “Soluble”.
`COc1cccc(CN2/C(=C/C(C)=O)Sc3ccc(O)cc32)c1`: the IC50 in [1] was 883 nM; in data set [2], 76 nM.
With `CCCCCCNC(=O)Oc1ccc2c(c1)N(CC)/C(=C/C(C)=O)S2`, the results for the IC50 against Cholinesterase and on Acetylcholinesterase [3] were 2000 nM and 14000 nM, respectively.
In the case of `CC(=O)/C=C1\Sc2ccc(O)cc2N1CCc1ccccc1`, the IC50 in data set [1] stood at 106 nM; in [2], 17 nM.
As to `CCN1/C(=C/C(C)=O)Sc2ccc(OC(=O)N(C)C)cc21`, the IC50 on Cholinesterase is greater than 10000 nM. Moreover, in [9], the inhibition was 25%.
On to `CC(=O)/C=C1\Sc2ccc(O)cc2N1Cc1ccc(Cl)cc1`, for which, in [5], the inhibition stood at 75%. Besides, the IC50 in [2] stood at 40 nM.
As to `CCCCCCCNC(=O)Oc1ccc2c(c1)N(CCc1ccccc1)/C(=C/C(C)=O)S2`, on Cholinesterase, the midpoint of inhibition, the IC50, lay at 26.7 nM. Moreover, the chromatographic logD in [7] is 4.36. For the same compound, the inhibition at Acetylcholinesterase [4] was less than 10%.
On Cholinesterase, `CCCCNC(=O)Oc1ccc2c(c1)N(Cc1ccccc1)/C(=C/C(C)=O)S2` came in with an IC50 greater than 10000 nM. In data set [9], the inhibition came to 22%.

For orientation: IC50 means the concentration that inhibits the measured activity by half. One may read the inhibition as the relative decrease from the control value, in per cent. What is called chromatographic logD is lipophilicity estimated from chromatographic retention.
